Results published in patent US11053251B2, “GPR35 modulators” (Prometheus Biosciences, Inc., priority 2019, dated 2021).

Tests used:
[1] = target: Human GPR35 (Homo sapiens, UniProt Q9HC97); experiment: Beta-Arrestin Assay (Tango U2OS cells, LiveBLAzer-FRET B/G); assay type: cell-based; conditions: Human GPR35 expressing Tango U2OS cells, 5 hours treatment
Procedure, shortened: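 Tango U2OS cells expressing GPR35 were plated at 10,000 cells/well overnight, then treated with serially diluted compounds for 5 h. Beta-arrestin recruitment was read by LiveBLAzer-FRET B/G after a 2 h substrate incubation, with zaprinast as positive control. EC50 came from a four-parameter dose-response fit.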

[2] = target: Human GPR35 (Homo sapiens, UniProt Q9HC97, S294R); experiment: Alternative Beta-Arrestin Assay (JumpIn 294R Tango U2OS cells, LiveBLAzer-FRET B/G); assay type: cell-based; conditions: for EC50: Human GPR35 expressing JumpIn 294R Tango U2OS cells, 5 hours treatment; for % inhibition at 50 μM: Table 2
Chain of Human GPR35 (Homo sapiens, UniProt Q9HC97, S294R) (Q9HC97 whole entry S294R): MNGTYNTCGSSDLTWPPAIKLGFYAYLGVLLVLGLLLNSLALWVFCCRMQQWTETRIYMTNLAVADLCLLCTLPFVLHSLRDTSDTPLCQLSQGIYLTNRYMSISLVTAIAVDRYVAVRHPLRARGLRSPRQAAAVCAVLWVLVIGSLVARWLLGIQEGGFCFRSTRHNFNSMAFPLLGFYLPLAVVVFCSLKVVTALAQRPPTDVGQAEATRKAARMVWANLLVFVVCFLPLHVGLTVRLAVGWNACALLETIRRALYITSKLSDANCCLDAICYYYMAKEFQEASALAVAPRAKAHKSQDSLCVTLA
Procedure, shortened: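 Beta-arrestin recruitment measured as FRET ratio change using CCF4-AM loading for 2 h, following 5-hour compound treatment of GPR35 (S294R) JumpIn Tango U2OS cells. Zaprinast served as positive control; EC50 values from four-parameter dose-response fits.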

Chain of Human GPR35 (Homo sapiens, UniProt Q9HC97) (Q9HC97 whole entry): as the sequence (Q9HC97 whole entry S294R) above, with R294S counted along it

SMILES	EC50 [1] [µM]	EC50 [2] [µM]	% inhibition at 50 μM [2] [% inhibition at]
CCOc1cc(C(=O)N2CC[C@H](C(=O)O)C2)ccc1-c1nc2[nH]nnc2c(=O)[nH]1 [Compound 160, (S)-1-(3-ethoxy-4-(7-oxo-6,7-dihydro-3H-[1,2,3]triazolo[4,5-d]pyrimidin-5-yl)benzoyl)pyrrolidine-3-carboxylic acid]	≤ 10	≤ 10	–
CCOc1cc(C(=O)N2CCC[C@H]2C(=O)O)ccc1-c1nc2[nH]nnc2c(=O)[nH]1 [Compound 158, (3-ethoxy-4-(7-oxo-6,7-dihydro-3H-[1,2,3]triazolo[4,5-d]pyrimidin-5-yl)benzoyl)-L-proline]	> 10	–	48
CCOc1cc(NCC(=O)O)ccc1-c1nc2[nH]nnc2c(=O)[nH]1 [Compound 170, (3-ethoxy-4-(7-oxo-6,7-dihydro-3H-[1,2,3]triazolo[4,5-d]pyrimidin-5-yl)phenyl)glycine]	≤ 10	≤ 10	–
CCOc1cc(C(N)=O)ccc1-c1nc2[nH]nnc2c(=O)[nH]1 [Compound 135, 3-Ethoxy-4-(7-oxo-6,7-dihydro-3H-[1,2,3]triazolo[4,5-d]pyrimidin-5-yl)benzamide]	≤ 10	≤ 10	–
CCOc1cc(C(=O)N(C)c2ccccc2)ccc1-c1nc2[nH]nnc2c(=O)[nH]1 [Compound 139, 3-ethoxy-N-methyl-4-(7-oxo-6,7-dihydro-3H-[1,2,3]triazolo[4,5-d]pyrimidin-5-yl)-N-phenylbenzamide]	> 10	–	35
CCOc1cc(CO)ccc1-c1nc2[nH]nnc2c(=O)[nH]1 [Compound 145, 5-(2-ethoxy-4-(hydroxymethyl)phenyl)-3,6-dihydro-7H-[1,2,3]triazolo[4,5-d]pyrimidin-7-one]	≤ 10	≤ 10	–
O=c1[nH]c(-c2ccc(-c3ccccc3)cc2)nc2[nH]nnc12 [Compound 129, 5-([1,1′-biphenyl]-4-yl)-3,6-dihydro-7H-[1,2,3]triazolo[4,5-d]pyrimidin-7-one]	≤ 10	10 to 50	–
CCOc1cc(-c2cccnc2)ccc1-c1nc2[nH]nnc2c(=O)[nH]1 [Compound 102, 5-(2-Ethoxy-4-(pyridin-3-yl)phenyl)-3,6-dihydro-7H-[1,2,3]triazolo[4,5-d]pyrimidin-7-one]	≤ 10	≤ 10	–
CCOc1cc(C(=O)N2CCCCC2C(=O)O)ccc1-c1nc2[nH]nnc2c(=O)[nH]1 (stereo not drawn) [Compound 171, 1-(3-ethoxy-4-(7-oxo-6,7-dihydro-3H-[1,2,3]triazolo[4,5-d]pyrimidin-5-yl)benzoyl)piperidine-2-carboxylic acid]	> 10	10 to 50	–
CCOc1cc(-c2ccccc2C(=O)O)ccc1-c1nc2[nH]nnc2c(=O)[nH]1 [Compound 109, 3′-Ethoxy-4′-(7-oxo-6,7-dihydro-3H-[1,2,3]triazolo[4,5-d]pyrimidin-5-yl)-[1,1′-biphenyl]-2-carboxylic acid]	≤ 10	10 to 50	–
CCOc1cc(-c2ccc(O)c(C(=O)O)c2)ccc1-c1nc2[nH]nnc2c(=O)[nH]1 [Compound 179, 3′-ethoxy-4-hydroxy-4′-(7-oxo-6,7-dihydro-3H-[1,2,3]triazolo[4,5-d]pyrimidin-5-yl)-[1,1′-biphenyl]-3-carboxylic acid]	≤ 10	≤ 10	–
O=C(O)Cc1ccc(-c2nc3[nH]nnc3c(=O)[nH]2)cc1 [Compound 149, 2-(4-(7-oxo-6,7-dihydro-3H-[1,2,3]triazolo[4,5-d]pyrimidin-5-yl)phenyl)acetic acid]	≤ 10	≤ 10	–
